Among the test systems are 786-0 renal; A498 renal; A549 NSCLC; COLO 205 colon; EKVX NSCLC; HCT-116 colon; MDA-MB-231 breast; MDA-MB-435; NCI-H460 lung; NCI/ADR-RES ovarian; OVCAR-4 ovarian; SF-268 CNS; SF-295 CNS; SK-MEL-2 melanoma; SK-OV-3 ovarian; TK-10 renal; UO-31 renal; IGROV1 ovarian; RPMI-8226 leukemia; SN12C renal.
Test in all cases: inhibition of tumour cell growth, NCI panel, 48 h

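Step 1: Grow cells in 96-well plates. Step 2: Expose to compound for 48 hours at 5 concentrations. Step 3: Interpolate endpoints linearly; if unreached, use highest concentration. TGI denotes the concentration required for complete inhibition of growth.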

Turning to `Cc1c(/C=N\NC(=S)NCCNC(=S)N/N=C\c2c(C)n(C)n(-c3ccccc3)c2=O)c(=O)n(-c2ccccc2)n1C`, the TGI in the assay with 786-0 renal, in the assay with A498 renal, in the assay with A549 NSCLC, in the assay with COLO 205 colon, in the assay with EKVX NSCLC and with HCT-116 colon was over 100 µM throughout. Also, the TGI with MDA-MB-231 breast, in the assay with MDA-MB-435, in the assay on NCI-H460 lung, in the assay with NCI/ADR-RES ovarian, with OVCAR-4 ovarian and with SF-268 CNS was over 100 µM each time. Also, the TGI with SF-295 CNS, with SK-MEL-2 melanoma, with SK-OV-3 ovarian, in the assay with TK-10 renal and in the assay on UO-31 renal was over 100 µM each time.
For the molecule `Cc1nc(C)c(N2CCN([N+](=O)[O-])CC2)c(=O)[nH]1`, the TGI in the assay with 786-0 renal, in the assay on A498 renal, in the assay with A549 NSCLC, in the assay with COLO 205 colon, in the assay on EKVX NSCLC and with HCT-116 colon was over 100 µM in each case. The TGI in the assay with IGROV1 ovarian, with MDA-MB-231 breast, in the assay with MDA-MB-435, in the assay on NCI-H460 lung, in the assay with NCI/ADR-RES ovarian and in the assay on OVCAR-4 ovarian was over 100 µM each time. For the same molecule, the TGI in the assay on RPMI-8226 leukemia, in the assay with SF-268 CNS, with SF-295 CNS, in the assay with SK-OV-3 ovarian, in the assay on SN12C renal and with TK-10 renal was over 100 µM throughout. For the same molecule, the TGI in the assay on UO-31 renal is over 100 µM.
On to `Nc1ccc(N=Nc2c(S(=O)(=O)O)cc3ccccc3c2S(=O)(=O)O)cc1`, for which the TGI with 786-0 renal, in the assay with A498 renal, in the assay with A549 NSCLC, in the assay on EKVX NSCLC, with HCT-116 colon and in the assay with IGROV1 ovarian was over 100 µM in each case. The TGI with MDA-MB-231 breast, in the assay on MDA-MB-435, in the assay with NCI-H460 lung, in the assay with NCI/ADR-RES ovarian, in the assay with OVCAR-4 ovarian and with SF-268 CNS was over 100 µM throughout. Also, the TGI in the assay on SF-295 CNS, in the assay on SK-MEL-2 melanoma, in the assay on SN12C renal, in the assay on TK-10 renal and in the assay on UO-31 renal was over 100 µM each time.
`CC(C)c1cc2c(c(O)c1O)[C@@]1(C(=O)O)CCCC(C)(C)[C@@H]1CC2`: the TGI was over 100 µM with 786-0 renal; 67.4 µM in the assay with A549 NSCLC; over 100 µM in the assay on COLO 205 colon; 30.8 µM in the assay with EKVX NSCLC; over 100 µM in the assay with HCT-116 colon; 36.9 µM with IGROV1 ovarian. The TGI in the assay on MDA-MB-231 breast is 86.3 µM; with MDA-MB-435, 34.5 µM; with NCI-H460 lung it was 50.9 µM; with NCI/ADR-RES ovarian, 31.3 µM; in the assay with OVCAR-4 ovarian, over 100 µM; with RPMI-8226 leukemia it was 30.3 µM. Besides, the TGI was 41.3 µM with SF-268 CNS; 68.5 µM in the assay with SF-295 CNS; 41.6 µM with SK-MEL-2 melanoma; over 100 µM with SK-OV-3 ovarian; 64.8 µM in the assay on SN12C renal; 31.5 µM with TK-10 renal. The same molecule yielded a TGI with UO-31 renal of 27.4 µM.
For `CC(NC(=O)Cc1ccccc1)NC(=O)C(C)C(=O)Nc1ccccc1` (centres undefined), the TGI with 786-0 renal, in the assay on A549 NSCLC, in the assay with COLO 205 colon, in the assay on EKVX NSCLC, with HCT-116 colon and in the assay on IGROV1 ovarian was over 100 µM in each case. Besides, the TGI in the assay on MDA-MB-231 breast, in the assay with MDA-MB-435, in the assay on NCI-H460 lung, in the assay with NCI/ADR-RES ovarian, with OVCAR-4 ovarian and in the assay with RPMI-8226 leukemia was over 100 µM each time. The TGI with SF-268 CNS, in the assay on SF-295 CNS, in the assay on SK-MEL-2 melanoma, in the assay on SK-OV-3 ovarian, in the assay on SN12C renal and in the assay with TK-10 renal was over 100 µM in each case. Besides, the TGI in the assay on UO-31 renal is over 100 µM.
Regarding `C=C1CC(C#N)(C#N)[C@H]2C3CCCC3C[C@@H]12` (some centres undefined) (tested in a mixture with another compound), the TGI with 786-0 renal was 36.9 µM; with A498 renal it was 48 µM; with EKVX NSCLC, 98.4 µM; in the assay with HCT-116 colon, 19.4 µM; in the assay with IGROV1 ovarian it was over 100 µM; in the assay with MDA-MB-231 breast it was 55.2 µM. In addition, the TGI was 44.5 µM with MDA-MB-435; 48.2 µM in the assay on NCI/ADR-RES ovarian; 61.1 µM with SF-268 CNS; 39.4 µM in the assay on SF-295 CNS; over 100 µM in the assay on SK-OV-3 ovarian; 30.5 µM in the assay on SN12C renal. Moreover, the TGI is over 100 µM in the assay on TK-10 renal and 35.3 µM with UO-31 renal.
In the case of `O=C1OC(C2Cc3ccc4ccccc4c3C2=O)c2ccccc21` (centres undefined), the TGI with 786-0 renal, with A498 renal, in the assay with A549 NSCLC, in the assay on COLO 205 colon, in the assay on EKVX NSCLC and in the assay on HCT-116 colon was over 100 µM in each case. Moreover, the TGI in the assay with IGROV1 ovarian is over 100 µM; in the assay on MDA-MB-231 breast it was over 100 µM; in the assay on MDA-MB-435, over 100 µM; with NCI-H460 lung, over 100 µM; in the assay with NCI/ADR-RES ovarian it was over 100 µM; in the assay with OVCAR-4 ovarian, 65.3 µM. In addition, the TGI with RPMI-8226 leukemia is 93.3 µM; in the assay with SF-268 CNS, over 100 µM; in the assay with SF-295 CNS, over 100 µM; in the assay with SK-MEL-2 melanoma it was over 100 µM; in the assay with SN12C renal, over 100 µM; in the assay with TK-10 renal it was over 100 µM. In addition, the TGI in the assay with UO-31 renal was over 100 µM.
